Source: ChEMBL document CHEMBL3421629, “Pyrazole phenylcyclohexylcarbamates as inhibitors of human fatty acid amide hydrolases (FAAH)” (Eur J Med Chem, 2015)

Experiments:
[1] = target: T1, Fatty-acid amide hydrolase 1 (Homo sapiens, UniProt O00519); experiment: Inhibition of human recombinant FAAH using AMC arachidonoyl amide as substrate after 30 mins by fluorescence assay
T1 sequence (O00519 whole entry): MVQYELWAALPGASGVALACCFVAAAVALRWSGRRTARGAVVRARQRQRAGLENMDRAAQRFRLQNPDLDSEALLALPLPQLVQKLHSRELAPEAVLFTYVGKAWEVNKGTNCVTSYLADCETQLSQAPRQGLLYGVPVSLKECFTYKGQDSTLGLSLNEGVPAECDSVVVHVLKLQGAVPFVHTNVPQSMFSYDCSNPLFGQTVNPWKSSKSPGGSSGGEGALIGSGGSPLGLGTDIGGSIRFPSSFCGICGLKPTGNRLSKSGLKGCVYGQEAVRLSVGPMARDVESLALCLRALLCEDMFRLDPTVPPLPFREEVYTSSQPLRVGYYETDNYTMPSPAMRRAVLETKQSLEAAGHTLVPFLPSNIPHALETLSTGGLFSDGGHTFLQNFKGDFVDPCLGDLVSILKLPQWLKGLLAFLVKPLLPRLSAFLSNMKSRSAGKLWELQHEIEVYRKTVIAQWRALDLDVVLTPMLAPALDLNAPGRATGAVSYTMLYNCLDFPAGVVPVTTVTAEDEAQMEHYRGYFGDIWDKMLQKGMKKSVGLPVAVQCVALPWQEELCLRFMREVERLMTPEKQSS

[2] = target: T1, Fatty-acid amide hydrolase 1; experiment: Inhibition of human recombinant FAAH using AMC arachidonoyl amide as substrate preincubated with protein for 0 min followed by substrate addition by fluorescence assay
[3] = target: T1, Fatty-acid amide hydrolase 1; experiment: Inhibition of human recombinant FAAH using AMC arachidonoyl amide as substrate preincubated with protein for 30 mins followed by substrate addition by fluorescence assay
[4] = target: T1, Fatty-acid amide hydrolase 1; experiment: Inhibition of human recombinant FAAH using AMC arachidonoyl amide as substrate preincubated with protein for 60 mins followed by substrate addition by fluorescence assay
[5] = target: T2, Monoglyceride lipase (Homo sapiens, UniProt Q99685); experiment: Inhibition of human recombinant MAGL using 4-nitrophenylacetate as substrate after 30 mins
T2 sequence (Q99685 whole entry): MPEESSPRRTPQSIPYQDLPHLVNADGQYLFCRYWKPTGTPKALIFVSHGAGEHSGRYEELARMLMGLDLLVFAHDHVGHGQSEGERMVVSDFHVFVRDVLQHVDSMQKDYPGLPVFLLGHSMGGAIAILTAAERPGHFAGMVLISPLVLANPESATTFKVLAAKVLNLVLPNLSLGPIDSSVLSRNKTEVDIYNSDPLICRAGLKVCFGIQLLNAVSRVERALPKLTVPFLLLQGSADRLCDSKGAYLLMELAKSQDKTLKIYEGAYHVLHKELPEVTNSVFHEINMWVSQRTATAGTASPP

[6] = species: Homo sapiens; experiment: Selectivity index, ratio of IC50 for human recombinant MAGL to IC50 for human recombinant FAAH

Row | SMILES | IC50 [1] | further results
1 | COc1nn(-c2ccc(NC(=O)OCc3ccccc3)c(C)c2)c(=O)o1 | 14 nM | IC50 [2]: 13 nM; IC50 [3]: 3.5 nM; IC50 [4]: 1.9 nM
2 | CCOC(=O)c1cc(-c2ccc(OC(=O)NC3CCCCC3)cc2)n(-c2ccc(Cl)cc2)n1 | 281 nM | 
3 | CCOC(=O)c1cc(-c2cccc(OC(=O)NC3CCCCC3)c2)n(C)n1 | 303 nM | 
4 | NC(=O)c1cc(-c2ccc(OC(=O)NC3CCCCC3)cc2)n(-c2ccc(Cl)cc2)n1 | 172 nM | 
5 | CCOC(=O)c1cc(-c2cccc(OC(=O)NC3CCCCC3)c2)n(Cc2ccccc2)n1 | 70 nM | 
6 | CCOC(=O)c1cc(-c2cccc(OC(=O)NC3CCCCC3)c2)nn1C | 227 nM | 
7 | CCOC(=O)c1cc(-c2cccc(OC(=O)NC3CCCCC3)c2)n(-c2ccc([N+](=O)[O-])cc2)n1 | 78 nM | 
8 | CCCCCCNC(=O)Oc1cccc(-c2cc(C(=O)OCC)nn2-c2ccccc2)c1 | 88 nM | 
9 | COc1ccc(-n2nc(C(N)=O)cc2-c2cccc(OC(=O)NC3CCCCC3)c2)cc1 | 743 nM | 
10 | CCOC(=O)c1cc(-c2ccc(OC(=O)NC3CCCCC3)cc2)nn1-c1ccccc1 | 592 nM | 
11 | CCOC(=O)c1cc(-c2cccc(OC(=O)NC3CCCCC3)c2)n(-c2ccc(Cl)cc2)n1 | 17 nM | IC50 [5]: 83000 nM; Ratio IC50 [6]: 4900; IC50 [2]: 15 nM; IC50 [3]: 17 nM; IC50 [4]: 18 nM
12 | CCOC(=O)c1cc(-c2cccc(OC(=O)NC3CCCCC3)c2)n(-c2ccc(Cl)cc2Cl)n1 | 123 nM | 
13 | CCOC(=O)c1cc(-c2cccc(OC(=O)NC3CCCCC3)c2)nn1CC | 507 nM | 
14 | CCOC(=O)c1cc(-c2cccc(OC(=O)NC3CCCCC3)c2)nn1-c1ccc(OC)cc1 | 407 nM | 
15 | O=C(NC1CCCCC1)Oc1cccc(-c2cc(CO)nn2-c2ccccc2)c1 | 462 nM | 
16 | CCOC(=O)c1cc(-c2cccc(OC(=O)NC3CCCCC3)c2)n(-c2ccccc2)n1 | 11 nM | IC50 [5]: 21000 nM; Ratio IC50 [6]: 1840
17 | CC(C)NC(=O)c1cc(-c2cccc(OC(=O)NC3CCCCC3)c2)n(-c2ccccc2)n1 | 232 nM | 
18 | Cn1nc(C(N)=O)cc1-c1ccc(OC(=O)NC2CCCCC2)cc1 | 209 nM | 
19 | CCOC(=O)c1cc(-c2ccc(OC(=O)NC3CCCCC3)cc2)nn1C | 316 nM | 
20 | NC(=O)c1cc(-c2cccc(OC(=O)NC3CCCCC3)c2)n(-c2ccc(Cl)cc2)n1 | 174 nM | 

Row | SMILES | IC50 [1] | further results
21 | CCOC(=O)c1cc(-c2cccc(OC(=O)NC3CCCCC3)c2)n(-c2ccc(OC)cc2)n1 | 103 nM | 
22 | CCOC(=O)c1cc(-c2cccc(OC(=O)NC3CCCCC3)c2)n(-c2ccc(C)cc2)n1 | 29 nM | IC50 [5]: 34000 nM; Ratio IC50 [6]: 1190
23 | CCOC(=O)c1cc(-c2ccc(OC(=O)NC3CCCCC3)cc2)nn1-c1ccc(Cl)cc1 | 586 nM | 
24 | CCOC(=O)c1cc(-c2cccc(OC(=O)NC3CCCCC3)c2)n(CC)n1 | 101 nM | 
25 | CCCCCCNC(=O)Oc1cccc(-c2cc(C(=O)OCCC)nn2-c2ccccc2)c1 | 101 nM | 
26 | CCOC(=O)c1cc(-c2ccc(OC(=O)NC3CCCCC3)cc2)nn1CC | 603 nM | 
27 | CCCOC(=O)c1cc(-c2cccc(OC(=O)NC3CCCCC3)c2)n(-c2ccccc2)n1 | 27 nM | IC50 [5]: 38000 nM; Ratio IC50 [6]: 1380
28 | NC(=O)c1cc(-c2ccc(OC(=O)NC3CCCCC3)cc2)n(-c2ccccc2)n1 | 71 nM | 
29 | NC(=O)c1cc(-c2cccc(OC(=O)NC3CCCCC3)c2)n(-c2ccccc2)n1 | 169 nM | 
30 | CCOC(=O)c1cc(-c2ccc(OC(=O)NC3CCCCC3)cc2)nn1-c1ccc(OC)cc1 | 159 nM | 
31 | CCOC(=O)c1cc(-c2cccc(OC(=O)NC3CCCCC3)c2)n(-c2ccc(C(F)(F)F)cc2)n1 | 132 nM | 
32 | CCN(CC)C(=O)c1cc(-c2cccc(OC(=O)NC3CCCCC3)c2)n(-c2ccccc2)n1 | 448 nM | 
33 | O=C(NC1CCCCC1)Oc1cccc(-c2cc(C(=O)O)nn2-c2ccccc2)c1 | 2270 nM | 
34 | O=C(NC1CCCCC1)Oc1cccc(-c2cc(C(=O)NC3CCCCC3)nn2-c2ccccc2)c1 | 288 nM | 
35 | CCOC(=O)c1cc(-c2ccc(OC(=O)NC3CCCCC3)cc2)n(C)n1 | 81 nM | 
36 | CCOC(=O)c1cc(-c2ccc(OC(=O)NC3CCCCC3)cc2)n(CC)n1 | 214 nM | 
37 | CCOC(=O)c1cc(-c2ccc(OC(=O)NC3CCCCC3)cc2)n(-c2ccccc2)n1 | 268 nM | 
38 | CCOC(=O)c1cc(-c2cccc(OC(=O)NC3CCCCC3)c2)nn1-c1ccc(Cl)cc1 | 353 nM | 
39 | COC(=O)c1cc(-c2cccc(OC(=O)NC3CCCCC3)c2)n(-c2ccccc2)n1 | 18 nM | IC50 [5]: 49000 nM; Ratio IC50 [6]: 2750
40 | CCOC(=O)c1cc(-c2cccc(OC(=O)NC3CCCCC3)c2)nn1-c1ccccc1 | 539 nM | 
